Data from patent publication US20240115875A1, “Systems, Methods, and Substances for Controlled Endoluminal Energy Application” (Dream Big Biotechnologies B.V., priority 2021, published 2024).

How the values were obtained:
tumor tissue [1] = conditions: input of the simulation, cited from earlier work; for Tumor uptake: assumed tissue uptake; for Molar extinction coefficient ϵ: at the wavelength given with each photosensitizer (630-690 nm)
tumor tissue [2] = test: Estimated PDT threshold doses for several photosensitizers (photodynamic threshold model); conditions: in tumor, from uptake and molar weight
Method: In these simulations, we assumed intravenous administration of a light-absorbing drug and the placement of a light emitter in the endovascular system at the site of tumor encroachment around it. Light absorbed by the photosensitizer was assumed to result in the local creation of short-lived cytotoxic radicals, causing cell death e.g. hemorrhagic tissue necrosis and apoptosis. To quantify the attainable effects, light-dose escalation studies were performed using Monte Carlo light propagation simulations (FullMonteCUDA) (“High-performance, robustly verified Monte Carlo simulation with FullMonte,” J. Biomed. Opt. 23(8), 085001 (2018)). The use of the photosensitizer BPD-MA mediated PDT was initially investigated in a simple “cube and tube” geometry representing the pancreas and a vessel traversing its center. The multilayered tube represented the vascular wall layers, intima, media and adventitia having an air-filled balloon with a linear line source in the center. […] Simulation properties were assigned as described above and PDT activation energies were escalated over the range of 10-100 J cm^−1 diffuser length, and the anticipated threshold dose in mJ·cm^−3 and radii of necrosis were estimated based on the photodynamic threshold model introduced by Patterson M, Wilson B C, Graff R: In vivo test of the concept of photodynamic threshold dose in normal rat liver photosensitized by aluminum chlorosulfunated phthalocyanine. Photochem Photobiol, 51(3): 343-349, 1990.
The pancreatic model is shown in FIG. 7A comprising a 4×4×5 cm cube, one half is assigned with optical properties of normal pancreatic tissue and the other half with those of cancerous pancreatic tissues. Running through the cube's center is a blood vessel made up of three layers, intima, media, adventitia, with assigned properties from the literature for aortic tissues. An initial dose-escalation simulation investigated if an adequate fluence [J·cm^−2] can be delivered through the vessel wall to create a surgically sufficiently large circumferential necrotic margin (mm) surrounding the vessel, based on the photosensitizer accumulation and the sensitizer's molar extinction coefficient. The vessel's inner diameter and wall thickness were set to 7.0 mm and 1.30 mm, respectively. The energy emitting source was cylindrical in shape with a length of 20 mm and the irradiance at the intima surface was fixed at 200 mW·cm^−2. The exposure times escalated to deliver 10 to 100 J total energy. An example of the absorbed energy density as a function of radius from the vessel center is shown in FIG. 7B, with an estimated necrotic margin ranging from […]. The subsequent necrotic clearing of viable tumor tissue from the adventitia is predicted based on the threshold model for common photosensitizers, see Tables 1 and 2.

[3] = In-vivo porcine model, heart rate and blood pressure during photosensitizer infusion; parameters: species or system Sus scrofa domesticus; conditions: for changes in blood pressure or heart rate during the injection: 5% i.v. dextrose drip
Method: The preclinical experiments in pigs required some precautions.
[…] […] The animal gradually recovered after 10 to 20 min and stabilized to normal heart rates.

[4] = system: porcine pancreas, splenic vein and artery; test: In-vivo dose escalation in healthy porcine, endovascular balloon-catheter PDT, 48h CT and histopathology
Method: The performance of Monte Carlo simulations determined that the photosensitizer verteporfin appears to be a suitable photosensitizer and that perivascular necrosis can occur when irradiating at relevant light dose ranges in a clinically acceptable time range of several minutes. In-vivo experiments were carried out in healthy porcine (n=7) delivering light irradiation from an endovascular balloon-catheter laser probe.
The irradiating balloon catheter was placed in the splenic vein (crosshair) and an increasingly large hypodense margin, interpreted as PDT induced necrosis, can be observed for increasing doses.
In FIG. 12A, the pancreas can be observed with the splenic vein, artery, and the approximate location of the irradiating balloon catheter. Radially extending into the pancreas is a circumferential margin of necrosis (dotted line and arrows, circa 10 mm).

[5] = system: porcine pancreas and target vessels (splenic, hepatic, superior mesenteric artery)
Method: Five large white porcine (Sus scrofa domesticus), weighing between 25-43 kg, were used as animal model, because the anatomy of the porcine pancreas and its vasculature closely resembles that of the human. Animals were handled according to the European Directive 2010/63 and French laws concerning animal protection in laboratories.
Following the intravascular procedure, porcine recovered from anesthesia and were housed for a survival period of 24 hours up to one week. After the survival period the sedation protocol above was repeated and general anesthesia was induced using intravenous (18 G Intravenous catheter in-ear vein) propofol 3 mg/kg, followed by orotracheal intubation and maintained with rocuronium 0.8 mg/kg along with inhaled isoflurane 2%. At the end of the experiment, animals were euthanized with an intravenous injection of pentobarbital 40 mg/kg IV (Exagon ND, Axience).
To counteract possible effects of BPD-MA on the porcine blood pressure, the antihistamine dexchlorpheniramine was given the days before and immediately prior to the start of photosensitizer infusion. Polaramine® was administered at 2 mg p.o. BID to TID the day before and Polaramine® 5 mg IV (slow bolus) 30 to 60 minutes before photosensitizer injection. Methylprednisolone SoluMedrol®120 (3 mg kg-1) was administered also IV (slow bolus) 30 to 60 minutes before photosensitizer injection. […]
To visualize the pancreas and its target vessels for treatment planning, non-enhanced and contrast-enhanced CT scans were carried out shortly before treatment, in the early arterial and early portal venous phase. […] A 3D vascular roadmap was obtained via software manipulation (syngo.via, Siemens Healthineers AG, Germany) and the position, morphology and dimensions of the target vessels were assessed and used for later co-localization during the angiography-guided procedure and placement of a suitably sized PDT light source, being a prototype irradiating balloon catheter. […]

Molecule | Tumor uptake (tumor tissue [1]) [mg/g] | Photosensitizer concentration (tumor tissue [2]) | Molar extinction coefficient ϵ (tumor tissue [1]) | changes in heart rate during injection ([3]; first porcine, i.v. saline drip, without pre-medications, injection stopped at 0.2 mg kg^−1) | changes in blood pressure or heart rate during the injection ([3]; porcine 2-3, pre-medicated excluding heparin, 0.4 mg·kg^−1) | changes in blood pressure or heart rate during the injection ([3]; porcine 4-5, pre-medicated including heparin, 1.6 mg·kg^−1) | radius of apparent perivascular circumferential tissue necrosis ([4]; 0.4-3.2 mg/kg, light irradiation 8-25 minutes, 48h contrast-enhanced CT and histopathology, n=7) | artery and vein wall histopathology ([4]; L-size dose 1.6 mg/kg, 48h post PDT) | circumferential margin of necrosis extending into the pancreas, histopathology ([4]; L-size dose 1.6 mg/kg, 48h post PDT, H&E and EVG) | hypodense area around the target vessel on contrast-enhanced CT, extending outwards from the outer wall of the vessel (possible PDT-induced necrosis) ([5]; 0.4-1.6 mg·kg^−1 i.v., 690 nm, 150 mW·cm^−2, 75-225 J·cm^−2, CT 24 h to one week) | splenic arterial wall histopathology ([5]; in vivo) | vessel structural integrity on contrast-enhanced CT ([5]; in vivo)
Oc1cccc(-c2c3nc(c(-c4cccc(O)c4)c4ccc([nH]4)c(-c4cccc(O)c4)c4nc(c(-c5cccc(O)c5)c5ccc2[nH]5)CC4)C=C3)c1 [Temoporfin, 5,10,15,20-Tetra(m-hydroxyphenyl)chlorin] | 0.5 | – | – | – | – | – | – | – | – | – | – | –
c1ccc2c(c1)-c1nc-2nc2[nH]c(nc3nc(nc4[nH]c(n1)c1ccccc41)-c1ccccc1-3)c1ccccc21 [Phthalocyanine] | 12.3 | 2.3 · 10^−5 M | – | – | – | – | – | – | – | – | – | –
Photofrin | 8.1 | 6.8 · 10^−6 M | 1,170 M^−1 cm^−1 | – | – | – | – | – | – | – | – | –
benzoporphyrin derivative monoacid ring A [Verteporfin] | 23.9 | 3.3 · 10^−5 M | 33,000 M^−1 cm^−1 | Immediate changes occurred in the heart rate, decreasing to a degree that adrenaline was administered to stabilize the animal | No changes occurred in blood pressure or heart rate during the injection | No changes occurred in blood pressure or heart rate during the injection | 2-15 mm | intact vessel unruptured walls albeit with atrophic muscular cells and ulcerated endothelial cells | circa 10 mm | 2-6 mm | endothelial loss and necrotic cellular tissues were observed, but the extracellular matrix containing collagen and elastin was preserved in some cases | no perforations, ruptures, and bleedings were observed
C=Cc1c(C)c2cc3nc(c(CC(=O)N[C@@H](CC(=O)O)C(=O)O)c4[nH]c(cc5nc(cc1[nH]2)C(C)=C5CC)c(C)c4C(=O)O)[C@@H](CCC(=O)O)[C@@H]3C [Talaporfin] | 1.62 | 2.2 · 10^−6 M | 40,000 M^−1 cm^−1 | – | – | – | – | – | – | – | – | –
